Results published in PMC12195738 (Pharmaceuticals, 2025).
Like-named read-outs stand apart in the source and are kept apart here.

Experiments:
[1] = Visual appearance of Flu-Na solutions at different pH values; format: physicochemical; conditions: 1 mg/mL, pH 4.85
Method: Solutions were prepared at a concentration of 1 mg/mL, and visual appearance was recorded after pH adjustment.

[2] = Shake-flask log D (n-octanol/DPBS); format: physicochemical; conditions: pH increased from 6.0 to 10.0
Method: Equal volumes of n-octanol and DPBS were mixed and shaken at room temperature for 24 h using an incubator shaker (Lab-Line Instruments, Inc., Melrose Park, IL, USA) to achieve mutual saturation. The pre-saturated n-octanol and DPBS phases were then carefully transferred into separate centrifuge tubes and centrifuged (Centrifuge 5430 R, Eppendorf AG, Hamburg, Germany) at 5000× g for 20 min to ensure complete phase separation.
Flu-Na solutions were prepared at a final concentration of 1 mg/mL by dissolving Flu-Na in pre-saturated DPBS, followed by pH adjustment to approximately 6, 7, 8, 9, and 10 using sodium hydroxide or hydrochloric acid solutions. […]
The concentrations of Flu-Na in both phases were measured at 492 nm using the microplate reader (SpectraMax iD5, Molecular Devices, San Jose, CA, USA). Calibration curve standards were prepared using DPBS adjusted to the corresponding pH values to ensure accurate quantification under each condition. The log D was calculated as the base-10 logarithm of the concentration ratio between the n-octanol phase and the aqueous phase.

[3] = Ex vivo permeation across porcine nasal mucosa in Franz diffusion cells; format: in vitro ADME, Sus scrofa domesticus; conditions: pig
Method: (§1) Nasal mucosa tissues were carefully dissected from the lower turbinates within the nasal cavity. Immediately after excision, the tissues were immersed in chilled DPBS to prevent desiccation and to preserve structural integrity. The samples were then cut into appropriate sizes, and mucosal thickness was measured using an electronic digital caliper (Fisher Scientific, Waltham, MA, USA) as described in previous work. […] The nasal mucosa was mounted between the donor and receptor chambers, with the epithelial side facing the donor compartment. DPBS was used as the receptor medium and maintained at 37 ± 0.5 °C under continuous stirring at 600 rpm. At predetermined time points (0.5, 1, 2, 3, 4, 5, 6, 7, and 8 h), 0.5 mL of sample was withdrawn from the receptor compartment and immediately replaced with fresh DPBS to maintain sink conditions. The melatonin loading solution was prepared by dissolving an appropriate amount of melatonin powder in 5 mL of DPBS, stirring for 15 min, and filtering through a 0.2 µm nylon membrane filter (Fisher Scientific, Waltham, MA, USA). […] At the start of the experiment, 0.5 mL of melatonin loading solution was added to the donor compartment. Receptor samples collected at each time point were mixed with an equal volume of acetonitrile, vortexed, and centrifuged (AccuSpin Micro17, Fisher Scientific, Waltham, MA, USA) at 10,000× g for 20 min. The resulting supernatants were collected for HPLC analysis. […] Receptor samples collected at each time point were centrifuged (AccuSpin Micro17, Fisher Scientific, Waltham, MA, USA) directly at 10,000× g for 20 min. The supernatants were collected for microplate reader (SpectraMax iD5, Molecular Devices, San Jose, CA, USA) analysis. The permeation curve is reported as percentage of drug permeated and was computationally corrected for the withdrawn volume using an Excel (Microsoft, Redmond, WA, USA) add-in program DDSolver 1.0 [53]. Papp were calculated as described in previous work. Numerical simulations were performed using COMSOL Multiphysics® version 6.2 (COMSOL Inc., Burlington, MA, USA), following the methodology established in our previous study. The simulations were based on Fick’s law of diffusion, describing solute concentration changes over time and space within a defined three-dimensional geometry. The “Transport of Diluted Species” physics interface was employed to simulate drug diffusion dynamics, while adsorption effects were incorporated to account for drug retention within the nasal mucosa. […] To address this, the simulation model was first fitted to experimentally obtained permeation profiles to extract key transport parameters. These parameters were subsequently used to normalize each permeation curve to a standardized mucosal thickness of 0.80 mm. Thickness correction minimized the impact of variability and enabled more accurate and consistent comparisons across experimental conditions.

porcine nasal mucosa [4] = assay: Flu-Na permeability across IPA-damaged porcine nasal mucosa (Franz diffusion cells); format: in vitro ADME, Sus scrofa domesticus
Method: To systematically investigate this issue, nasal mucosa tissues harvested from the same pig were immersed in 10%, 50%, or 100% IPA for 30 min to induce graded levels of chemical damage. A parallel control sample was incubated in DPBS under identical conditions. Flu-Na permeability was then measured as an indicator of mucosal integrity. This experiment was independently repeated in tissues from three different pigs to ensure reproducibility. Representative images of nasal mucosa following IPA-induced damage are shown in Figure 9, and the corresponding Papp values, normalized to a standardized mucosal thickness of 0.80 mm, are presented in Figure 10.
Tissues obtained from the same pig were used to evaluate the effects of different IPA concentrations and the DPBS control within a single experimental set. To ensure reproducibility, the entire experiment was independently repeated using tissues from three different pigs.
For each experimental set, three pieces of nasal mucosa tissue from the same pig were submerged in 3 mL of IPA at concentrations of 10%, 50%, or 100% for 30 min to induce graded levels of epithelial damage. A parallel control tissue sample from the same pig was submerged in 3 mL of DPBS under identical conditions. Following exposure, all tissues were thoroughly rinsed with DPBS to remove residual solvent and were immediately mounted in Franz diffusion cells for permeability testing.
Nasal mucosal permeability was evaluated using a Phoenix™ DB-6 Franz diffusion system (Teledyne Hanson Research, Los Angeles, CA, USA), equipped with a diffusion area of 1.0 cm^2 and a receptor volume of 10 mL. The nasal mucosa was mounted between the donor and receptor chambers, with the epithelial side facing the donor compartment. […]
The Flu-Na loading solution was prepared at a fixed concentration of 1 mg/mL by dissolving 25 mg of Flu-Na in 25 mL of DPBS using volumetric flasks. […] The supernatants were collected for microplate reader (SpectraMax iD5, Molecular Devices, San Jose, CA, USA) analysis.

[5] = set-up: method as in PMID 9232516; conditions: reported in the literature; cited from earlier work
[6] = set-up: method as in doi:10.2343/geochemj.2.0226; conditions: cited from earlier work
porcine nasal mucosa [7] = assay: Ex vivo permeation across porcine nasal mucosa in Franz diffusion cells; format: in vitro ADME, Sus scrofa domesticus
Method: as §1

[8] = different-pig (inter-individual) group, n = 3, simulation-based normalization, read-out: mean Papp after normalization to standardized thickness of 0.80 mm
[9] = same-pig (intra-individual) group, n = 3, simulation-based normalization, read-out: mean Papp after normalization to standardized thickness of 0.80 mm

Row | SMILES | visual appearance of solution [1] | log D (shake-flask), pH dependency [2] | Papp at 8 h [3, 8] | Papp at 8 h [3, 9] | Flu-Na permeability (Papp) vs DPBS negative control, preliminary study (porcine nasal mucosa [4]; 10% IPA as positive control, groups from different donor pigs, unpublished data) | trend of Papp values with IPA concentration (porcine nasal mucosa [4]; escalating IPA concentrations (10%, 50%, and 100%), 30 min) | Flu-Na permeability (Papp) vs DPBS negative control (porcine nasal mucosa [4]; mucosa immersed in 10% IPA for 30 min, same pig, normalized to 0.80 mm, three pigs) | log P [5] | log P ([6]; pH 4.29) | log P ([6]; pH 7.5) | decrease of CV of Papp by normalization (porcine nasal mucosa [7]; different-pig group) | decrease of CV of Papp by normalization (porcine nasal mucosa [7]; same-pig group) | Papp at 8 h ([3]; different-pig (inter-individual) group, n = 3, 8 h Franz diffusion, read-out: mean Papp before thickness normalization) | Papp at 8 h, 1008 μg/mL ([3]; same-pig (intra-individual) group, n = 3, 8 h Franz diffusion, read-out: mean Papp before thickness normalization)
1 | O=C([O-])c1ccccc1-c1c2ccc(=O)cc-2oc2cc([O-])ccc12.[Na+].[Na+] [Flu-Na, Fluorescein sodium salt] | precipitation observed | progressively more negative | 7.33 ± 1.6 ×10⁻⁶ cm/s | 5.28 ± 0.18 ×10⁻⁶ cm/s | paradoxical decrease | general trend of increasing Papp values | lower | −0.67 to −1.52 | – | – | – | – | – | –
2 | O=C1OC2(c3ccc(O)cc3Oc3cc(O)ccc32)c2ccccc21 [fluorescein] | – | – | – | – | – | – | – | – | approximately 2.78 | −0.08 | – | – | – | –
3 | COc1ccc2[nH]cc(CCNC(C)=O)c2c1 [melatonin, Melatonin] | – | – | 10.5 ± 0.42 ×10⁻⁶ cm/s | 10 ± 0.78 ×10⁻⁶ cm/s | – | – | – | – | – | – | 5.7% | 16.8% | 14.6 ± 1.42 ×10⁻⁶ cm/s | 14.1 ± 3.47 ×10⁻⁶ cm/s
